Results on one molecule are retold here after PMC5652037 (EBioMedicine, 2017).

What is called pIC50 is the negative decadic logarithm of the IC50, by convention in mol/L. Higher therefore signals a small IC50.

The experiment deals with γ-secretase (catalytic subunit presenilin 1, PS1) (Cricetulus griseus, UniProt G3HNF2). The experiment in a line: Aβ[…] secretion. It is filed as cell-based.

pIC50: −log10 of the molar value.

In turn, `CC(C)[C@H](O)C(=O)N[C@@H](C)C(=O)N[C@@H]1C(=O)N(C)CCc2ccccc21` [semagacestat] had a negative logarithm of the IC50 (pIC50) of 7.33.
